What was measured:
Ehrlich ascites tumour = conditions: cited from earlier work
promyelocytic leukaemia = assay: modified propidium iodide cytotoxicity assay, promyelocytic leukaemia (comparison); assay type: cell-based, human
Experimental: (§1) Various human tumor cells were grown at 37° C. in a humidified atmosphere (95% air, 5% CO2) in monolayer cultures in RPMI 1640 medium with phenol red (Life Technologies, Karlsruhe, Germany) supplemented with 10% fetal calf serum. Cells were trypsinized and maintained weekly.
(§2) A modified propidium iodide assay (based on W. A. Dengler et. al, Anti-Cancer Drugs, 6, pp. 522-532 (1995)) was used to examine the antiproliferative activity of the study compounds. Briefly, cells will be harvested from exponential phase cultures growing in RPMI 1640 medium supplemented with 10% fetal calf serum by trypsination, counted and plated in 96 well flat-bottomed microtiter plates (140 μl cell suspension, 8×10^4 cells/ml). […] After thawing of the plates, fluorescence was measured using a Millipore Cytofluor 2350-microplate reader (excitation 530 nm, emission 620 nm) in order to quantify the total cell number. […]
(§3) Growth inhibition is expressed as Treated/Control×100 (or T/C %). IC50 and IC70 values were determined by plotting compound concentration versus cell number. Mean IC50 and IC70 values were calculated according to the formula: [formula]
(§4) With x=specific tumor cell line and n=total number of cell lines studied. If IC50 or IC70 could not be determined within the examined dose range, the lowest or highest concentration studied was used for the calculation.

RXF486L = assay: modified propidium iodide cytotoxicity assay, renal tumour cell line; assay type: cell-based, human; conditions: 4 days of incubation
Experimental: as §1, §2, §3, §4

PC3 = assay: modified propidium iodide cytotoxicity assay, prostate tumour cell line; assay type: cell-based, human; conditions: Prostate tumour cell line PC3, 4 days of incubation
Experimental: as §1, §2, §3, §4

GXF251L = assay: modified propidium iodide cytotoxicity assay, gastric tumour cell line; assay type: cell-based, human; conditions: 4 days of incubation
Experimental: as §1, §2, §3, §4

OVCAR3 = assay: modified propidium iodide cytotoxicity assay, ovarian tumour cell line; assay type: cell-based, human; conditions: Ovarian tumour cell line OVCAR3, 4 days of incubation
Experimental: as §1, §2, §3, §4

DLD1 = assay: modified propidium iodide cytotoxicity assay, colon tumour cell line; assay type: cell-based, human; conditions: Colon tumour cell line DLD1, 4 days of incubation
Experimental: as §1, §2, §3, §4

MXAF401NL = assay: modified propidium iodide cytotoxicity assay, mammary tumour cell line; assay type: cell-based, human; conditions: 4 days of incubation
Experimental: as §1, §2, §3, §4

Substance	effect on tumour growth (Ehrlich ascites tumour)	IC70 (promyelocytic leukaemia; promyelocytic leukaemia, comparison) [µg/mL]	sensitivity of the Table I tumour cells relative to promyelocytic leukaemia (promyelocytic leukaemia; ratio of IC70 values, solid tumour cells versus promyelocytic leukaemia) [times]	IC70 (RXF486L) [µg/mL]	IC70 (PC3) [µg/mL]	IC70 (GXF251L) [µg/mL]	IC70 (OVCAR3) [µg/mL]	IC70 (DLD1) [µg/mL]	IC70 (MXAF401NL) [µg/mL]
Potassium arsenite	affected only the growth of Ehrlich ascites tumour	–	–	–	–	–	–	–	–
salt of meta-arsenite (AsO2^−) [meta-arsenite compound]	–	6.82	2 to 20	0.63	0.85	3.08	3.02	0.48	0.32
